Where no end group is shown, it is not given here.
Key:
purified HLA DRB1 *0101 = purified HLA DRB1 *0101 (Homo sapiens, UniProt P01903+P01911, A100R/D57E/F55L/F60I/F76Y/I96L/L162R/M171V/P40L/Q125E/R42F/V115G/Y59C); assay: IC50nM to purified HLA | DRB1 *0101
Description: (§1) Table printed on a drawing sheet, FIG. 1
(§2) Head of the field: IC50nM to purified HLA | DRB1 *0101
(§3) First copying reader's note: The comma is the decimal sign and the point a thousands separator (e.g. 21.831); some values are printed bold or italic and some SEQ ID NOs underlined, with no legend on the sheet.
(§4) Where the first naming reader finds the target: head: IC50nM to purified HLA | DRB1 *0101

purified HLA DRB1 *0701 = purified HLA DRB1 *0701 (Homo sapiens, UniProt P01903+P01911, A100R/A102G/A103Q/D57E/D86V/E43K/F76Y/K127E/L162R/M171V/P40G/Q125H/Q99D/R33Q/R42Y/R54Q/S133A/S66F/T210M/V115G/Y107V/Y59L/Y89S); assay: IC50nM to purified HLA | DRB1 *0701
Description: as §1
Head of the field: IC50nM to purified HLA | DRB1 *0701
as §3
Where the first naming reader finds the target: head: IC50nM to purified HLA | DRB1 *0701

purified HLA DRB1 *0802 = purified HLA DRB1 *0802 (Homo sapiens, UniProt P01903+P01911, A100R/A103L/A169T/F76Y/H45Y/I96F/K41T/L162R/M171V/P40S/Q125H/Q178H/Q39Y/Q99D/R218S/R42G/S66Y/V115G/W38E); assay: IC50nM to purified HLA | DRB1 *0802
Description: as §1
(§5) Head of the field: IC50nM to purified HLA | DRB1 *0802
as §3
(§6) Where the first naming reader finds the target: head: IC50nM to purified HLA | DRB1 *0802

purified HLA DRB1 *1302 = purified HLA DRB1 *1302 (Homo sapiens, UniProt P01903+P01911, A100E/A169T/K41T/L162R/M171V/P40S/Q125H/Q178H/Q39Y/Q99D/R42S/S66N/T262R/V115G/W38E/Y61H); assay: IC50nM to purified HLA | DRB1 *1302
purified HLA DRB1 *1302, sequence (P01903 26-254 limits assumed, other chains not shown): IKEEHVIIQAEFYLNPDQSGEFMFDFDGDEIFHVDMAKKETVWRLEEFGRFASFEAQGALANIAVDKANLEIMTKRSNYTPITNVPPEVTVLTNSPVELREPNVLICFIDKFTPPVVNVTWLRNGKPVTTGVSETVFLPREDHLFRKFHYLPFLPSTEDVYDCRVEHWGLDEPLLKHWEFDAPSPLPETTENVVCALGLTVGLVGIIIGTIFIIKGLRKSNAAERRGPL
Description: as §1
Head of the field: IC50nM to purified HLA | DRB1 *1302
as §3
Where the first naming reader finds the target: head: IC50nM to purified HLA | DRB1 *1302

purified HLA DRB4 *0101 = purified HLA DRB4 *0101 (Homo sapiens, UniProt P01903+P13762, G164S); assay: IC50nM to purified HLA | DRB4 *0101
purified HLA DRB4 *0101, sequence (P01903 26-254 limits assumed): as the sequence (P01903 26-254 limits assumed, other chains not shown) above
purified HLA DRB4 *0101, sequence (P13762 whole entry G164S): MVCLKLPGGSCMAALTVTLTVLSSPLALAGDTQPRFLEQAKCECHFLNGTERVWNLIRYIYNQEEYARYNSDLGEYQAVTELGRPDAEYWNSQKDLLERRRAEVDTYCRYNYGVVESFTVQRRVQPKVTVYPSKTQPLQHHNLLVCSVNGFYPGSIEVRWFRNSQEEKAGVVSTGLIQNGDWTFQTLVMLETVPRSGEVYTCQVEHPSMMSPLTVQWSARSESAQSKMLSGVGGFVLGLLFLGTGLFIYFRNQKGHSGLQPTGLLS
Description: as §1
(§7) Head of the field: IC50nM to purified HLA | DRB4 *0101
as §3
(§8) Where the first naming reader finds the target: head: IC50nM to purified HLA | DRB4 *0101

purified HLA DRB1 *0301 = purified HLA DRB1 *0301 (Homo sapiens, UniProt P01903+P01911, A100K/A102G/A103R/A169T/F55Y/I96L/K41T/L162R/M171V/P40S/Q125H/Q178H/Q39Y/R42S/S66N/T106N/T262R/W38E/Y61H); assay: IC50nM to purified HLA | DRB1 *0301
purified HLA DRB1 *0301, sequence (P01903 26-254 limits assumed, other chains not shown): as the sequence (P01903 26-254 limits assumed, other chains not shown) above
Description: as §1
(§9) Head of the field: IC50nM to purified HLA | DRB1 *0301
as §3
(§10) Where the first naming reader finds the target: head: IC50nM to purified HLA | DRB1 *0301

purified HLA DRB1 *0401 = purified HLA DRB1 *0401 (Homo sapiens, UniProt P01903+P01911, A100K/A169T/F76Y/I96L/K127E/L162R/M171V/N62H/P40V/Q125Y/R42H/S133A/S149N/S66Y/V115G/V209L/W38E); assay: IC50nM to purified HLA | DRB1 *0401
Description: as §1
Head of the field: IC50nM to purified HLA | DRB1 *0401
as §3
Where the first naming reader finds the target: head: IC50nM to purified HLA | DRB1 *0401

purified HLA DRB1 *0404 = purified HLA DRB1 *0404 (Homo sapiens, UniProt P01903+P01911, A100R/A169T/F76Y/I96L/K127E/L162R/M171V/N62H/P40V/Q125Y/R42H/S133A/S149N/S66Y/V209L/W38E); assay: IC50nM to purified HLA | DRB1 *0404
Description: as §1
(§11) Head of the field: IC50nM to purified HLA | DRB1 *0404
as §3
(§12) Where the first naming reader finds the target: head: IC50nM to purified HLA | DRB1 *0404

purified HLA DRB1 *1501 = purified HLA DRB1 *1501 (Homo sapiens, UniProt P01903+P01911); assay: IC50nM to purified HLA | DRB1 *1501
Description: as §1
(§13) Head of the field: IC50nM to purified HLA | DRB1 *1501
as §3
(§14) Where the first naming reader finds the target: head: IC50nM to purified HLA | DRB1 *1501

purified HLA DRB5 *0101 = purified HLA DRB5 *0101 (Homo sapiens, UniProt P01903+Q30154); assay: IC50nM to purified HLA | DRB5 *0101
Description: as §1
(§15) Head of the field: IC50nM to purified HLA | DRB5 *0101
as §3
(§16) Where the first naming reader finds the target: head: IC50nM to purified HLA | DRB5 *0101

HLA DRB1 *0101 = HLA DRB1 *0101 (Homo sapiens, UniProt P01903+P01911, A100R/D57E/F55L/F60I/F76Y/I96L/L162R/M171V/P40L/Q125E/R42F/V115G/Y59C); assay: IC50nM to purified HLA | DRB1 *0101
Description: (§17) Table printed on a drawing sheet, FIG. 1 (contd.)
as §2
(§18) First copying reader's note: Continued from the preceding sheet of FIG. 1; decimal commas are used, the analog names give the substituted residues and positions in PADRE, and some values are printed in italics or bold and some SEQ ID NOs bold and underlined without a legend on this sheet.
as §4

HLA DRB1 *0301 = HLA DRB1 *0301 (Homo sapiens, UniProt P01903+P01911, A100K/A102G/A103R/A169T/F55Y/I96L/K41T/L162R/M171V/P40S/Q125H/Q178H/Q39Y/R42S/S66N/T106N/T262R/W38E/Y61H); assay: IC50nM to purified HLA | DRB1 *0301
HLA DRB1 *0301, sequence (P01903 26-254 limits assumed, other chains not shown): as above
Description: as §17, §9, §18, §10

HLA DRB1 *0404 = HLA DRB1 *0404 (Homo sapiens, UniProt P01903+P01911, A100R/A169T/F76Y/I96L/K127E/L162R/M171V/N62H/P40V/Q125Y/R42H/S133A/S149N/S66Y/V209L/W38E); assay: IC50nM to purified HLA | DRB1 *0404
Description: as §17, §11, §18, §12

HLA DRB1 *0802 = HLA DRB1 *0802 (Homo sapiens, UniProt P01903+P01911, A100R/A103L/A169T/F76Y/H45Y/I96F/K41T/L162R/M171V/P40S/Q125H/Q178H/Q39Y/Q99D/R218S/R42G/S66Y/V115G/W38E); assay: IC50nM to purified HLA | DRB1 *0802
Description: as §17, §5, §18, §6

HLA DRB1 *1101 = HLA DRB1 *1101 (Homo sapiens, UniProt P01903+P01911, A100R/A169T/A87E/I96F/K41T/L162R/M171V/P40S/Q125H/Q178H/Q39Y/Q99D/R42S/S66Y/T262R/V115G/W38E); assay: IC50nM to purified HLA | DRB1 *1101
HLA DRB1 *1101, sequence (P01903 26-254 limits assumed, other chains not shown): as above
Description: as §17
Head of the field: IC50nM to purified HLA | DRB1 *1101
as §18
Where the first naming reader finds the target: head: IC50nM to purified HLA | DRB1 *1101

HLA DRB1 *1501 = HLA DRB1 *1501 (Homo sapiens, UniProt P01903+P01911); assay: IC50nM to purified HLA | DRB1 *1501
Description: as §17, §13, §18, §14

HLA DRB1 *0405 = HLA DRB1 *0405 (Homo sapiens, UniProt P01903+P01911, A100R/A169T/D86S/F76Y/I96L/K127E/L162R/M171V/N62H/P40V/Q125Y/R42H/S133A/S149N/S66Y/V115G/V209L/W38E); assay: IC50nM to purified HLA | DRB1 *0405
Description: as §17
Head of the field: IC50nM to purified HLA | DRB1 *0405
as §18
Where the first naming reader finds the target: head: IC50nM to purified HLA | DRB1 *0405

HLA DRB5 *0101 = HLA DRB5 *0101 (Homo sapiens, UniProt P01903+Q30154); assay: IC50nM to purified HLA | DRB5 *0101
Description: as §17, §15, §18, §16

HLA DRB1 *0901 = HLA DRB1 *0901 (Homo sapiens, UniProt P01903+P01911, A100R/A103E/D57H/D86V/F55Y/F60I/F76Y/I96F/K127E/L162R/M171V/P40D/Q125H/Q99R/R33Q/R42F/S133A/S66N/T210M/V115G/W38K/Y107V/Y59G/Y89S); assay: IC50nM to purified HLA | DRB1 *0901
Description: as §17
Head of the field: IC50nM to purified HLA | DRB1 *0901
as §18
Where the first naming reader finds the target: head: IC50nM to purified HLA | DRB1 *0901

HLA DRB4 *0101 = HLA DRB4 *0101 (Homo sapiens, UniProt P01903+P13762, G164S); assay: IC50nM to purified HLA | DRB4 *0101
HLA DRB4 *0101, sequence (P01903 26-254 limits assumed): as the sequence (P01903 26-254 limits assumed, other chains not shown) above
HLA DRB4 *0101, sequence (P13762 whole entry G164S): as the sequence (P13762 whole entry G164S) above
Description: as §17, §7, §18, §8

Sequence | IC50 (purified HLA DRB1 *0101) | IC50 (purified HLA DRB1 *0701) | IC50 (purified HLA DRB1 *0802) | IC50 (purified HLA DRB1 *1302) | IC50 (purified HLA DRB4 *0101) | IC50 (purified HLA DRB1 *0301) | IC50 (purified HLA DRB1 *0401) | IC50 (purified HLA DRB1 *0404) | IC50 (purified HLA DRB1 *1501) | IC50 (purified HLA DRB5 *0101) | IC50 (HLA DRB1 *0101) | IC50 (HLA DRB1 *0301) | IC50 (HLA DRB1 *0404) | IC50 (HLA DRB1 *0802) | IC50 (HLA DRB1 *1101) | IC50 (HLA DRB1 *1501) | IC50 (HLA DRB1 *0405) | IC50 (HLA DRB5 *0101) | IC50 (HLA DRB1 *0901) | IC50 (HLA DRB4 *0101)
AAAHFVAAYTLHAAA [SEQ ID NO: 27] | 3.8 nM | 94 nM | 11 nM | 1320 nM | 526 nM | 214 nM | 3.4 nM | 5.7 nM | 4.2 nM | 30 nM | – | – | – | – | – | – | – | – | – | –
AAAYFVAANTLHAAA [SEQ ID NO: 24] | 4.5 nM | 49 nM | – | 54 nM | 703 nM | 130 nM | 3.3 nM | 5.2 nM | 53 nM | – | – | – | – | – | – | – | – | – | – | –
AAAWFVAAFTLHAAA [SEQ ID NO: 9] | 5.3 nM | 69 nM | – | – | 115 nM | 139 nM | 3.1 nM | – | 38 nM | 30 nM | – | – | – | – | – | – | – | – | – | –

More lines, now with the values ahead:

IC50 (purified HLA DRB1 *0101) | IC50 (purified HLA DRB1 *0701) | IC50 (purified HLA DRB1 *0802) | IC50 (purified HLA DRB1 *1302) | IC50 (purified HLA DRB4 *0101) | IC50 (purified HLA DRB1 *0301) | IC50 (purified HLA DRB1 *0401) | IC50 (purified HLA DRB1 *0404) | IC50 (purified HLA DRB1 *1501) | IC50 (purified HLA DRB5 *0101) | IC50 (HLA DRB1 *0101) | IC50 (HLA DRB1 *0301) | IC50 (HLA DRB1 *0404) | IC50 (HLA DRB1 *0802) | IC50 (HLA DRB1 *1101) | IC50 (HLA DRB1 *1501) | IC50 (HLA DRB1 *0405) | IC50 (HLA DRB5 *0101) | IC50 (HLA DRB1 *0901) | IC50 (HLA DRB4 *0101) | Sequence
4.2 nM | 53 nM | 9.3 nM | 1190 nM | 267 nM | – | – | – | – | – | – | – | – | – | – | – | – | – | – | – | AAAHFVAAWTLHAAA [SEQ ID NO: 26]
– | – | – | – | – | – | – | – | – | – | 4.4 nM | 372 nM | 5.9 nM | 8.5 nM | 14 nM | 12 nM | 18 nM | 8.7 nM | – | – | AAANFVAAWTLKAAA [SEQ ID NO: 50]
– | – | – | – | – | – | – | – | – | – | 9 nM | – | 6.9 nM | 37 nM | 70 nM | 137 nM | 44 nM | – | 87 nM | 878 nM | AAAEFVAANTLHAAA [SEQ ID NO: 49]
